Data published in US12195427B2, “MASP-2 inhibitors and methods of use” (priority 2018, dated 2025).

Target: MASP-2 CCP2-SP (Homo sapiens (Human), UniProt O00187)
Assay: MASP-2 co-crystallization, X-ray crystallography and structure analysis (H-bonds, van der Waals contacts);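 on Ligand-pharmacophore element distance, pharmacophore element C2: distance from averaged pharmacophore element to bound ligand; missing value means element absent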;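 on Ligand-pharmacophore element distance, pharmacophore element C3: distance from averaged pharmacophore element to bound ligand; missing value means element absent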;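 on Ligand-pharmacophore element distance, pharmacophore element C4: distance from averaged pharmacophore element to bound ligand; missing value means element absent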;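 on Ligand-pharmacophore element distance, pharmacophore element C5: distance from averaged pharmacophore element to bound ligand; missing value means element absent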
Design: van der Waals contact distance, MASP-2 HIS 483 atom CD2 / van der Waals contact distance, MASP-2 HIS 483 atom NE2 / van der Waals contact distance, SER 654 C to compound atom / van der Waals contact distance, SER 654 O to compound atom / van der Waals contact distance, TRP 655 C to compound atom / van der Waals contact distance, MASP-2 GLY 528 atom CA / van der Waals contact distance TRP 655 atom CZ3 / van der Waals contact distance TRP 655 atom N / van der Waals contact distance TRP 655 atom CE3 / van der Waals contact distance GLY 656 atom C / van der Waals contact distance GLY 656 atom CA / van der Waals contact distance GLY 656 atom O / van der Waals contact distance, MASP-2 TYR 607 atom CD1 / van der Waals contact distance, MASP-2 PRO 606 atom O / d(C3,CA1) / d(CA1,N1)2 / d(H4,O1) / d(H4,O2) / d(O1,O2) / d(CA1,O2) / d(CA6,O1) / d(CA6,O2) / d(CA1,C5) / d(O2,H3) / d(N2,C2) / d(CA5,N2) / d(N2,C4) / d(N2,C6) / d(N2,CA3) / d(N2,O3) / d(O4,H2): unit not given beside the values
Conditions: for Ligand-pharmacophore element distance, pharmacophore element C2 / Ligand-pharmacophore element distance, pharmacophore element C3 / Ligand-pharmacophore element distance, pharmacophore element C4 / Ligand-pharmacophore element distance, pharmacophore element C5 / Ligand-pharmacophore element distance, pharmacophore element C6 / Ligand-pharmacophore element distance, pharmacophore element C7 / Ligand-pharmacophore element distance, pharmacophore element CA1 / Ligand-pharmacophore element distance, pharmacophore element CA2 / Ligand-pharmacophore element distance, pharmacophore element CA3 / Ligand-pharmacophore element distance, pharmacophore element CA4 / Ligand-pharmacophore element distance, pharmacophore element CA5 / Ligand-pharmacophore element distance, pharmacophore element CA6: Table A4-1
Method in brief: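 First, CCP2-SP constructs with or without a 6His tag are produced in E. coli. Crystals are then soaked once or twice with inhibitor, cryoprotected in 20% glycerol or frozen directly, and diffracted at synchrotron beamlines. Phasing uses molecular replacement with parts of 1Q3X.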

[1] = Table A5-1 pharmacophore: distance between elements, S2/S1 region
[2] = Table A5-2 pharmacophore distance, S3/S4 region
[3] = Table A7-1, between pharmacophore elements of the bound compound
[4] = Table A7-2, between pharmacophore elements of the bound compound
[5] = Table A8-6, nearest protein atom in cell to the left

Sequence of MASP-2 CCP2-SP (O00187 445-686): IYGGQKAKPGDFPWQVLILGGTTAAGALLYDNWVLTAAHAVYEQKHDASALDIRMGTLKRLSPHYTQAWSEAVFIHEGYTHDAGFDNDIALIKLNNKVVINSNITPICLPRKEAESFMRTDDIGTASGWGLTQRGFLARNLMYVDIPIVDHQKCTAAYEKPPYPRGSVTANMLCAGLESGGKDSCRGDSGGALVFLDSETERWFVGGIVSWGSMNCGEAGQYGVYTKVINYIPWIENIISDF
Sequence of MASP-2 CCP2-SP (O00187 364-432 partner): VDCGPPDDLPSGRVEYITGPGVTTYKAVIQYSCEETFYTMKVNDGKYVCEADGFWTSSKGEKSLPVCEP

| Compound | Ligand-pharmacophore element distance, pharmacophore element C2 | Ligand-pharmacophore element distance, pharmacophore element C3 | Ligand-pharmacophore element distance, pharmacophore element C4 | Ligand-pharmacophore element distance, pharmacophore element C5 | Ligand-pharmacophore element distance, pharmacophore element C6 | Ligand-pharmacophore element distance, pharmacophore element C7 | Ligand-pharmacophore element distance, pharmacophore element CA1 | Ligand-pharmacophore element distance, pharmacophore element CA2 | Ligand-pharmacophore element distance, pharmacophore element CA3 | Ligand-pharmacophore element distance, pharmacophore element CA4 | Ligand-pharmacophore element distance, pharmacophore element CA5 | Ligand-pharmacophore element distance, pharmacophore element CA6 | d(CA1,O1) [1] | d(CA1,O2) [1] | d(H4,O1) [1] | d(H4,O2) [1] | d(O1,O2) [1] | d(O2,H3) [2] | d(O2,N2) [2] | a(CA1, O1, O2) (Table A6-1 pharmacophore angle) | also measured |
| --- | --- | --- | --- | --- | --- | --- | --- | --- | --- | --- | --- | --- | --- | --- | --- | --- | --- | --- | --- | --- | --- |
| C[C@H](NC(=O)[C@H](N)C1Cc2ccccc2C1)C(=O)NCc1ccc2c(N)nccc2c1.Cl.Cl [1088_A] | 1.75 | 0 | 0 | 0 | 0 | 0 | 0.4 | 0 | 0 | 0 | 0.39 | 0 | 5.33 | 4.61 | 6.97 | 5.89 | 3.49 | 3.72 | 2.73 | 99.08 | d(CA5,N2) [2]: 5.30; d(N2,C2) [2]: 3.41; a(O1, O2, H4) (Table A6-1 pharmacophore angle): 149.95; a(O1, O2, H3) (Table A6-2 pharmacophore angle): 144.04; a(O1, O2, N2) (Table A6-2 pharmacophore angle): 141.09; a(O2, N2, C2) (Table A6-2 pharmacophore angle): 141.58; Pharmacophore torsion angle a(H4, O1, O2, H3) [3]: 49.33; Pharmacophore torsion angle a(H4, O1, O2, N2) [3]: 120.82; Pharmacophore torsion angle a(O1, H4, O2, CA1) [3]: −54.60; Pharmacophore torsion angle a(O1, O2, N2, C2) [3]: 103.40; Pharmacophore torsion angle a(O1, O2, N2, CA5) [4]: 116.27; Pharmacophore protein distance to MET_658 (first MET_658 column) (Table A8-6, 6th residue column, nearest protein atom in cell to the left): 3.04; Pharmacophore protein distance to MET_658 (second MET_658 column) (Table A8-6, 9th residue column, nearest protein atom in cell to the left): 3.12; Pharmacophore protein distance to GLY_528 [5]: 3.66; Pharmacophore protein distance to PHE_529 [5]: 2.75; Pharmacophore protein distance to PRO_608 [5]: 3.74; Pharmacophore protein distance to SER_611 [5]: 2.71; Pharmacophore protein distance to TRP_655 (Table A8-6, pharmacophore elements C6, CA3, O3, H1, nearest protein atom in cell to the left): 3.75 |
| CC(NC(=O)C1CC(Cc2ccccc2)CN1)C(=O)NCc1cnc2c(c1)c(Cl)cn2C.Cl.Cl (centres unmarked) [1450_B] | 0 | 0 | 0 | 1.67 | 0 | 1.3 | 0.94 | 1.24 | 0 | 0 | 0 | 0 | 5.49 | 4.57 | 3.14 | 3.46 | 3.83 | 2.32 | 2.67 | 98.92 | d(CA1,C5) [1]: 3.41; d(CA1,O4) [1]: 1.74; d(N2,CA2) [2]: 6.07; a(C5, CA1, O1) (Table A6-1 pharmacophore angle): 150.20; a(O1, CA1, C7) (Table A6-1 pharmacophore angle): 139.92; a(O1, CA1, O4) (Table A6-1 pharmacophore angle): 66.73; a(O1, O2, H4) (Table A6-1 pharmacophore angle): 109.15; a(O1, O2, H3) (Table A6-2 pharmacophore angle): 123.50; a(O1, O2, N2) (Table A6-2 pharmacophore angle): 138.89; a(O2, N2, CA2) (Table A6-2 pharmacophore angle): 155.81; Pharmacophore torsion angle a(C5, CA1, O1, H4) [3]: 13.21; Pharmacophore torsion angle a(C7, CA1, O1, H4) [3]: −150.35; Pharmacophore torsion angle a(H4, O1, O2, H3) [3]: −176.95; Pharmacophore torsion angle a(H4, O1, O2, N2) [3]: 177.59; Pharmacophore torsion angle a(O1, H4, O2, CA1) [3]: −91.88; Pharmacophore torsion angle a(O1, O2, N2, CA2) [4]: 137.59 |
